# What was measured:
# [1] = molecular target: T1, GST tagged LXRalpha LBD (ligand binding domain) (Homo sapiens, UniProt Q13133); test: LanthaScreen TR-FRET Liver X Receptor Coactivator Assay, LXR alpha-LBD; assay type: biochemical; settings: relative to reference T0901317; for EC50 / LXR alpha IP (nM): Inflection Point (potency), co-activator recruitment; for EC50: read-out: LXR alpha IP; for Emax: read-out: LXR alpha act @ max dose (%)
# T1 construct: purchased Invitrogen pv4655
# T1 sequence (Q13133 209-447 limits assumed): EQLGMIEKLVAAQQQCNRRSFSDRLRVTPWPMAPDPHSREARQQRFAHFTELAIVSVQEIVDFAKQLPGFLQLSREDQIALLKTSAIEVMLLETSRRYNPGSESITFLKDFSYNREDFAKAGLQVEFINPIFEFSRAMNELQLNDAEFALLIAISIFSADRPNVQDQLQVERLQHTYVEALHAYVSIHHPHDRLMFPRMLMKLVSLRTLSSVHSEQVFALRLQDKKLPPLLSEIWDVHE
# Method in brief: (§1)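 GST-tagged human LXRα or LXRβ LBD was mixed with test compound, then fluorescein-labelled coactivator peptide and terbium anti-GST antibody added. After room-temperature incubation, TR-FRET was read. Inflection point and Emax expressed relative to reference dual agonist T0901317.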
# [2] = molecular target: T2, GST tagged LXRbeta LBD (ligand binding domain) (Homo sapiens, UniProt P55055); test: LanthaScreen TR-FRET Liver X Receptor Coactivator Assay, LXR beta-LBD; assay type: biochemical; settings: relative to reference T0901317; for EC50: Inflection Point (potency), co-activator recruitment, read-out: LXR beta IP; for Emax: read-out: LXR beta act @ max dose (%)
# T2 construct: purchased Invitrogen pv4658.pps
# T2 sequence (P55055 222-460 limits assumed): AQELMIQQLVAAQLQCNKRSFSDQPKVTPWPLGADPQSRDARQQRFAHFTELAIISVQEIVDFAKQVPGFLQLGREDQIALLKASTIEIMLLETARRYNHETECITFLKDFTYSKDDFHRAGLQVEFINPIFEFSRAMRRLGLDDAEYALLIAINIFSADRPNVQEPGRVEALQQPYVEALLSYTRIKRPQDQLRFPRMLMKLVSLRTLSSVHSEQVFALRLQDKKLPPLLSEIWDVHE
# Method in brief: as §1
# [3] = activity at max dose (efficacy)
Compound,EC50 [1] [nM],"Emax [1, 3] [%]",EC50 [2] [nM],"Emax [2, 3] [%]",LXR alpha IP (nM) [1],"LXR alpha act @ max dose (%) [1, 3] [%]","LXR beta act @ max dose (%) [2, 3] [%]"
"CN(C)C(=O)c1ccc(N2CCC(C3CCN(C(=O)C4(C(F)(F)F)CCCC4)CC3)CC2)cc1Cl [Example A-28, 2-chloro-N,N-dimethyl-4-(1′-{[1-(trifluoromethyl)cyclopentyl]carbonyl}-4,4′-bipiperidin-1-yl)benzamide]",2470,73,173,123,–,–,–
"CN(CC1CC1(C)C)C(=O)c1ccc(N2CCC(C3CCN(C(=O)c4c(F)cccc4F)CC3)CC2)cc1Cl (stereo not shown) [Example E-15, 2-chloro-4-{1′-[(2,6-difluorophenyl)carbonyl]-4,4′-bipiperidin-1-yl}-N-[(2,2-dimethylcyclopropyl)methyl]-N-methylbenzamide]",–,10,283,54,NO IP,–,–
"O=C(c1ccc(N2CCC(C3CCN(C(=O)[C@](O)(c4ccccc4)C(F)(F)F)CC3)CC2)cc1Cl)N1CC(O)C1 [Example E-36, 1-[(2-chloro-4-{1′-[(2R)-3,3,3-trifluoro-2-hydroxy-2-phenylpropanoyl]-4,4′-bipiperidin-1-yl}phenyl)carbonyl]azetidin-3-ol]",3820,23,453,74,–,–,–
"O=C(c1ccc(N2CCC(C3CCN(C(=O)[C@](O)(c4ccccc4)C(F)(F)F)CC3)CC2)cc1Cl)N1CCCC1C1CC1 (stereo partly drawn) [Example E-57, (2R)-3-(1′-{3-chloro-4-[(2-cyclopropylpyrrolidin-1-yl)carbonyl]phenyl}-4,4′-bipiperidin-1-yl)-1,1,1-trifluoro-3-oxo-2-phenylpropan-2-ol]",975,16,134,65,–,–,–
"CN(C)C(=O)c1ccc(N2CCC(C3CCN(C(=O)OC(C)(C)C)CC3)CC2)nc1Cl [Example B-1, tert-butyl 1′-[6-chloro-5-(dimethylcarbamoyl)pyridin-2-yl]-4,4′-bipiperidine-1-carboxylate]",1550,74,20,119,–,–,–
"CC(C)CC(O)(C(=O)N1CCC(C2CCN(c3ccc(C(=O)N(C)C)c(Cl)n3)CC2)CC1)C(F)(F)F (stereo not shown) [Example B-7, 2-chloro-6-{1′-[2-hydroxy-4-methyl-2-(trifluoromethyl)pentanoyl]-4,4′-bipiperidin-1-yl}-N,N-dimethylpyridine-3-carboxamide]",1430,55,72,127,–,–,–
"CC(C)C(O)(C(=O)N1CCC(C2CCN(c3ccc(C(=O)N(C)C)c(Cl)n3)CC2)CC1)C(F)(F)F (stereo in doubt) [Example B-5, 2-chloro-6-{1′-[(2R)-2-hydroxy-3-methyl-2-(trifluoromethyl)butanoyl]-4,4′-bipiperidin-1-yl}-N,N-dimethylpyridine-3-carboxamide]",1100,61,27,115,–,–,–
"Cc1nc(CCN(C)C(=O)c2ccc(N3CCC(C4CCN(C(=O)[C@](O)(c5ccccc5)C(F)(F)F)CC4)CC3)cc2Cl)no1 [Example E-55, 2-chloro-N-methyl-N-[2-(5-methyl-1,2,4-oxadiazol-3-yl)ethyl]-4-{1′-[(2R)-3,3,3-trifluoro-2-hydroxy-2-phenylpropanoyl]-4,4′-bipiperidin-1-yl}benzamide]",1110,41,66,106,–,–,–
"CN(C)C(=O)c1ccc(N2CCC(C3CCN(C(=O)[C@@](O)(c4ccccc4)C(F)(F)C(F)(F)F)CC3)CC2)nc1Cl (single isomer, unassigned) [Example B-17]",854,39,30,130,–,–,–
"CN(C(=O)c1ccc(N2CCC(C3CCN(C(=O)[C@](O)(c4ccccc4)C(F)(F)F)CC3)CC2)cc1Cl)C1CCOC1 (stereo partly drawn) [Example E-53, 2-chloro-N-methyl-N-(tetrahydrofuran-3-yl)-4-{1′-[(2R)-3,3,3-trifluoro-2-hydroxy-2-phenylpropanoyl]-4,4′-bipiperidin-1-yl}benzamide]",1600,34,219,98,–,–,–
"O=C(c1c(F)cccc1F)N1CCC(C2CCN(c3ccc(C(=O)N4CCCC4C(F)(F)F)c(Cl)c3)CC2)CC1 (stereo not shown) [Example E-13, 1-(3-chloro-4-{[2-(trifluoromethyl)pyrrolidin-1-yl]carbonyl}phenyl)-1′-[(2,6-difluorophenyl)carbonyl]-4,4′-bipiperidine]",2150,15,473,46,–,–,–
"CCN(CC)C(=O)c1ccc(N2CCC(C3CCN(C(=O)c4c(F)cccc4F)CC3)CC2)cc1Cl [Example E-14, 2-chloro-4-{1′-[(2,6-difluorophenyl)carbonyl]-4,4′-bipiperidin-1-yl}-N,N-diethylbenzamide]",1890,30,289,78,–,–,–

# Further lines, results first:
EC50 [1] [nM],"Emax [1, 3] [%]",EC50 [2] [nM],"Emax [2, 3] [%]",LXR alpha IP (nM) [1],"LXR alpha act @ max dose (%) [1, 3] [%]","LXR beta act @ max dose (%) [2, 3] [%]",Compound
748,76,16,106,–,–,–,"CN(C)C(=O)c1ccc(N2CCC(C3CCN(C(=O)OC(C)(C)C)CC3)CC2)cc1Cl [Example A-1, tert-Butyl 1′-(3-chloro-4-(dimethylcarbamoyl)phenyl)-[4,4′-bipiperidine]-1-carboxylate]"
2630,54,91,106,–,–,–,"CC(=O)Oc1ccc(C(C)(C)C(=O)N2CCC(C3CCN(c4ccc(C(=O)N(C)C)c(Cl)c4)CC3)CC2)cc1 [Example A-59, 4-(2-{1′-[3-chloro-4-(dimethylcarbamoyl)phenyl]-4,4′-bipiperidin-1-yl}-1,1-dimethyl-2-oxoethyl)phenyl acetate]"
2120,62,73,119,–,–,–,"CN(C)C(=O)c1ccc(N2CCC(C3CCN(C(=O)C(O)(C(F)(F)F)C4(C)CC4)CC3)CC2)cc1Cl (stereo not shown) [Example A-30, 2-chloro-N,N-dimethyl-4-{1′-[3,3,3-trifluoro-2-hydroxy-2-(1-methylcyclopropyl)propanoyl]-4,4′-bipiperidin-1-yl}benzamide]"
1830,48,57,98,–,–,–,"CN(CCO)C(=O)c1ccc(N2CCC(C3CCN(C(=O)[C@](O)(c4ccccc4)C(F)(F)F)CC3)CC2)cc1Cl [Example E-58, 2-chloro-N-(2-hydroxyethyl)-N-methyl-4-{1′-[(2R)-3,3,3-trifluoro-2-hydroxy-2-phenylpropanoyl]-4,4′-bipiperidin-1-yl}benzamide]"
1,3,52,58,–,–,–,"CN(C)C(=O)c1ccc(N2CCC(C3CCN(C(=O)c4ccccc4Cl)CC3)CC2)cc1Cl [Example A-22, 2-chloro-4-{1′-[(2-chlorophenyl)carbonyl]-4,4′-bipiperidin-1-yl}-N,N-dimethylbenzamide]"
618,65,8,138,–,–,–,"CN(C)C(=O)c1ccc(N2CCC(C3CCN(S(=O)(=O)c4ccccc4C(F)(F)F)CC3)CC2)cc1Cl [Example A-101, 2-chloro-N,N-dimethyl-4-(1′-{[2-(trifluoromethyl)phenyl]sulfonyl}-4,4′-bipiperidin-1-yl)benzamide]"
1020,61,30,113,–,–,–,"CN(C)C(=O)c1ccc(N2CCC(C3CCN(C(=O)C4(c5ccccc5F)CCC4)CC3)CC2)cc1Cl [Example A-73, 2-chloro-4-(1′-{[1-(2-fluorophenyl)cyclobutyl]carbonyl}-4,4′-bipiperidin-1-yl)-N,N-dimethylbenzamide]"
1120,–,180,–,–,41,115,"COc1cccc(C(O)(C(=O)N2CCC(C3CCN(c4ccc(C(=O)N(C)C)c(Cl)c4)CC3)CC2)C(F)(F)C(F)(F)F)c1 (stereo not shown) [Example A-85, 2-chloro-N,N-dimethyl-4-{1′-[3,3,4,4,4-pentafluoro-2-hydroxy-2-(3-methoxyphenyl)butanoyl]-4,4′-bipiperidin-1-yl}benzamide]"
1330,38,84,116,–,–,–,"CN(C)C(=O)c1ccc(N2CCC(C3CCN(C(=O)C(O)(c4cccc(F)c4)C(F)(F)F)CC3)CC2)cc1Cl (stereo not shown) [Example A-95, 2-chloro-N,N-dimethyl-4-{1′-[3,3,3-trifluoro-2-(3-fluorophenyl)-2-hydroxypropanoyl]-4,4′-bipiperidin-1-yl}benzamide]"
–,17,825,62,NO IP,–,–,"CN(C)C(=O)c1ccc(N2CCC(C3CCN(c4ccccc4Cl)CC3)CC2)cc1Cl [Example A-107, 2-chloro-4-[1′-(2-chlorophenyl)-4,4′-bipiperidin-1-yl]-N,N-dimethylbenzamide]"
